Data reported in patent US8202998B2, “Salts of benzimidazolyl pyridyl ethers and formulations thereof” (Novartis AG, priority 2006, dated 2012).

Key:
[1] = Stability: degradation products (DP) and appearance (color) under stress conditions; assay type: physicochemical; set-up: key to CL: A: No change of color; B: Slight discoloration; C: Medium discoloration; D: Strong discoloration; ↓: Suspension; *: Clear solution after stress test; —: no change; x: test not performed
Method: Column: Symmetry C18 (Waters), 3.5 μm, 3×150 mm
Mobile phase: A=0.1% TFA in water; B=acetonitrile
Gradient: 20 to 100% B in 10 minutes
Column temperature: 40° C.
Stability of the three salts with respect to color and degradation products were assessed under various conditions.

[2] = Determination of solubility at 25° C.; assay type: physicochemical; details: for solubility: thermodynamic from solid; for Solid: line after Water under Solubility; for Aqueous solubility (in words): summary of Table 8
Method: Excess solids were equilibrated in each solvent for over 24 hours at 25° C.±0.1. Concentration in aqueous supernatant was measured by UV and HPLC and concentrations in organic solvents by gravimetry.

[3] = Intrinsic dissolution rate; assay type: physicochemical; details: 37° C.
Method: The intrinsic dissolution rate measurements were carried out in 0.5 cm^2 VanKel die assemblies and a pellet pressure of 1 ton. The dissolution was measured using a Cary 50 spectrophotometer with a stirring rate of 200 rpm. The solution medium was held at 37° C. and measurements were made at 276 nm.

[4] = Hygroscopicity (sorption/desorption); assay type: physicochemical; details: for Hygroscopicity: After 1 day at 80% r.h. / Hygroscopicity: After 1 day at 95% r.h.: 25° C.
Method: Sorption/desorption isotherms were measured using VTI vapor sorption device (DVS-1). Measurements were carried out at 25° C.

[5] = Polymorphism behavior: crystal modification after 24 hours equilibration; assay type: physicochemical
Method: A suspension of 6 mg of drug substance in 300 μl of solvent is prepared. Samples are agitated for ≧24 hour at 22° C.±2° C. The solids are collected and investigated for changes.

[6] = Bioavailability study of API and salts of API in dogs; assay type: in vivo, beagle dogs; details: single 100 mg oral dose; for AUC(0-inf) / Cmax / half-life / Tmax: beagle, dog, plasma; for AUC(0-inf) / Cmax / half-life / Tmax / Tlag: fasting; for AUC(0-inf) / Cmax / half-life: mean and sd; for Tmax / Tlag: median; for Absolute F: relative to an iv dose of 1.25 mg/kg
Method: For comparison, a microemulsion of the free base was also studied. The study was performed with 4 dogs, weighing 9-15 kg each. A crossover design with a washout period of at least 1 week was used. The dogs were given a single oral dose of 100 mg of test compound, administered under fasting conditions.

[7] = pH of 1% solution or suspension; assay type: physicochemical; details: In water
[8] = Thermogravimetry / loss on drying; assay type: physicochemical; details: for Loss on drying by TG: As is; for Thermogravimetry (weight loss in %): Heating rate 20 K/min
[9] = Effect of grinding on morphic properties; assay type: physicochemical
[10] = Aqueous solubility of salts in deionized water; details: for solubility / solubility at 48 h: deionized water, water, thermodynamic from solid; for pH: pH of the saturated aqueous solutions
[11] = 0.1% solutions or suspensions, 1 week 80° C. or 50° C., Methanol
[12] = 0.1% solutions or suspensions, 1 week 80° C. or 50° C., Water
[13] = 1-2 weeks 50° C., tight container, 1% in mixture 1
[14] = 1-2 weeks 50° C., tight container, 1% in mixture 2
[15] = 1-2 weeks 50° C./75% r.h., 1% in mixture 1
[16] = 1-2 weeks 50° C./75% r.h., 1% in mixture 2
[17] = Solid stage, 1 week 80° C., tight container, Bulk (HPLC)
[18] = Solid state, 1 week 80° C./175% r.h, Bulk (HPLC)
[19] = Solid state, 1 week 80° C./, Bulk (HPLC)
[20] = Xenon light (approx. 1200 kLuxh), Bulk (HPLC)
[21] = 0.1N HCl, 25 °C, simulated gastric fluid, read-out: Solubility (approx. at 25° C.) (HPLC)
[22] = acetonitrile, 25 °C, organic solvent or mixture, read-out: Solubility (approx. at 25° C.)
[23] = aqueous medium at pH 3, 25 °C, pH 3, aqueous buffer, read-out: Solubility (approx. at 25° C.) (HPLC)
[24] = aqueous medium at pH 4.5, 25 °C, pH 4.5, aqueous buffer, read-out: Solubility (approx. at 25° C.) (HPLC)
[25] = methanol, 25 °C, organic solvent or mixture, read-out: Solubility (approx. at 25° C.)
[26] = water, 25 °C, water, read-out: Solubility (approx. at 25° C.) (HPLC)

Cn1c(Nc2ccc(C(F)(F)F)cc2)nc2cc(Oc3ccnc(-c4ncc(C(F)(F)F)[nH]4)c3)ccc21.O=C(O)/C=C\C(=O)O [Maleate, {1-methyl-5-[2-(5-trifluoromethyl-1H-imidazol-2-yl)-pyridin-4-yloxy]-1H-benzoimidazol-2-yl}-(4-trifluoromethyl-phenyl)amine maleate]
CL [1, 11]: A
DP [1, 11]: 0.4%
CL [1, 12]: A↓
DP [1, 12]: 0.3%
CL [1, 13]: A
DP [1, 13]: 0.4%
CL [1, 14]: A
DP [1, 14]: 0.4%
CL [1, 15]: A
DP [1, 15]: 1.1%
CL [1, 16]: A
DP [1, 16]: 0.5%
Stability in methanol (in words) ([1]; In methanol): stable
CL [1, 17]: A
DP [1, 17]: 0.7%
DP [1, 18]: 0.4%
CL [1, 19]: A
DP ([1]; Unstressed): 0.3%
CL [1, 20]: A
DP [1, 20]: 0.3%
solubility [2, 21]: 2300 µg/mL
solubility [2, 22]: 4700 µg/mL
solubility [2, 23]: 0.15 µg/mL
solubility [2, 24]: 0.03 µg/mL
Solid [2]: No change
solubility [2, 25]: > 50000 µg/mL
Measured pH ([2]; solubility sample at pH 3): 3.4
Measured pH ([2]; solubility sample in 0.1N HCl): 1.4
Aqueous solubility (in words) [2]: higher at low pH and lower in neutral conditions
solubility [2, 26]: 10 µg/mL
Intrinsic dissolution rate ([3]; HCl 0.1N): 0.03 mg min^−1 cm^−2
Intrinsic dissolution rate ([3]; Water): 0.0076 mg min^−1 cm^−2
Hygroscopicity from moisture sorption profiles (in words) [4]: slightly hygroscopic
Hygroscopicity: After 1 day at 80% r.h. [4]: 0.8
Hygroscopicity: After 1 day at 95% r.h. [4]: 1.1
Crystal modification after 24 hours equilibration (DSC/XRPD/TG) ([5]; 2-propanol): No change
Crystal modification after 24 hours equilibration (DSC/XRPD/TG) ([5]; Acetone): Change
Crystal modification after 24 hours equilibration (DSC/XRPD/TG) ([5]; Acetonitrile): Change
Crystal modification after 24 hours equilibration (DSC/XRPD/TG) ([5]; Ethanol): No change
Crystal modification after 24 hours equilibration (DSC/XRPD/TG) ([5]; Ethyl acetate): Change
Crystal modification after 24 hours equilibration (DSC/XRPD/TG) ([5]; Methanol): Change
Crystal modification after 24 hours equilibration (DSC/XRPD/TG) ([5]; PEG400): Change
Crystal modification after 24 hours equilibration (DSC/XRPD/TG) ([5]; Water): No change
AUC(0-inf) [6]: 29600 ± 5920 ng·h/mL
Cmax [6]: 1220 ± 320 ng/mL
half-life [6]: 18.8 ± 7.7 h
Tmax [6]: 4 h
Tlag [6]: 0.12 h
Absolute F [6]: 12.9 ± 2.6
pH of 1% solution or suspension [7]: 2.7
Loss on drying by TG ([8]; listed as maleate, maleate): 0.1%
Loss on drying by TG ([8]; maleate): 0.11%
Thermogravimetry (weight loss in %) [8]: 0.11%
Effect of grinding [9]: No change
solubility [10]: 17 µg/mL
solubility at 48 h [10]: 96 µg/mL
pH [10]: 2.415

CS(=O)(=O)O.Cn1c(Nc2ccc(C(F)(F)F)cc2)nc2cc(Oc3ccnc(-c4ncc(C(F)(F)F)[nH]4)c3)ccc21 [Mesylate, {1-methyl-5-[2-(5-trifluoromethyl-1H-imidazol-2-yl)-pyridin-4-yloxy]-1H-benzoimidazol-2-yl}-(4-trifluoromethyl-phenyl)amine methanesulfonate]
CL [1, 11]: A
DP [1, 11]: 2.7%
CL [1, 12]: A↓
DP [1, 12]: 0.5%
CL [1, 13]: A
DP [1, 13]: 0.5%
CL [1, 14]: A
DP [1, 14]: 0.6%
CL [1, 15]: A
DP [1, 15]: 2%
CL [1, 16]: A
DP [1, 16]: 1.2%
CL [1, 17]: A
DP [1, 17]: 0.5%
DP [1, 18]: 0.8%
CL [1, 19]: A
DP ([1]; Unstressed): 0.5%
CL [1, 20]: A
DP [1, 20]: 0.6%
solubility [2, 21]: 5700 µg/mL
solubility [2, 22]: 4000 µg/mL
solubility [2, 23]: 0.5 µg/mL
solubility [2, 24]: 0.1 µg/mL
Solid [2]: No change
solubility [2, 25]: > 50000 µg/mL
Measured pH ([2]; solubility sample at pH 3): 3.6
Measured pH ([2]; solubility sample in 0.1N HCl): 1.3
Aqueous solubility (in words) [2]: significantly improves aqueous solubility at all pH levels
solubility [2, 26]: 70 µg/mL
Intrinsic dissolution rate ([3]; HCl 0.1N): 0.056 mg min^−1 cm^−2
Intrinsic dissolution rate ([3]; Water): 0.0024 mg min^−1 cm^−2
Hygroscopicity from moisture sorption profiles (in words) [4]: hygroscopic
Hygroscopicity: After 1 day at 80% r.h. [4]: 4.0
Hygroscopicity: After 1 day at 95% r.h. [4]: 13.0
Crystal modification after 24 hours equilibration (DSC/XRPD/TG) ([5]; 2-propanol): No change
Crystal modification after 24 hours equilibration (DSC/XRPD/TG) ([5]; Acetone): No change
Crystal modification after 24 hours equilibration (DSC/XRPD/TG) ([5]; Acetonitrile): No change
Crystal modification after 24 hours equilibration (DSC/XRPD/TG) ([5]; Ethanol): No change
Crystal modification after 24 hours equilibration (DSC/XRPD/TG) ([5]; Ethyl acetate): No change
Crystal modification after 24 hours equilibration (DSC/XRPD/TG) ([5]; Methanol): No change
Crystal modification after 24 hours equilibration (DSC/XRPD/TG) ([5]; PEG400): No change
Crystal modification after 24 hours equilibration (DSC/XRPD/TG) ([5]; Water): Change
AUC(0-inf) [6]: 54400 ± 14200 ng·h/mL
Cmax [6]: 1570 ± 530 ng/mL
half-life [6]: 21.4 ± 13 h
Tmax [6]: 5 h
Tlag [6]: 0.13 h
Absolute F [6]: 23.7 ± 6.2
pH of 1% solution or suspension [7]: 2.0
Loss on drying by TG [8]: 1.3%
Thermogravimetry (weight loss in %) [8]: 1.3%
Effect of grinding [9]: No change
solubility [10]: 4 µg/mL
solubility at 48 h [10]: 774 µg/mL
pH [10]: 1.992
